# From patent publication US20060073121A1, “Spray formulation for pungency enhancement in Capsicum” (priority 2004, published 2006)
# Tested on: Capsicum frutescens Mill
# Experiment: Spray of abiotic elicitors to flowers of field-grown plants; HPLC of phenyl propanoid intermediates and capsaicinoids in harvested fruits
# Assay type: in vivo
# Excerpt: The seedlings of Capsicum frutescens Mill were raised in soil bed. The seeds of C. frutescens were collected from wild from BR Hills, […]. The 2 months old seedling plants were transplanted to the soil and grown under controlled conditions to avoid cross-pollination after the onset of flowering. The plants were established well 2 months after transplantation and started to flower by 90 days with proper agronomic practices with regard to irrigation, fertilizer application, weeding and care from major pests and diseases. The abiotic elicitor (Methyl Jasmonate) was purchased from Duchefa Pvt.LTD. Methyl Jasmonate stock solution was prepared and later used at different concentrations (1 mM, 2.5 mM and 5 mM) for spraying to the whole plant containing flowers, completely opened flowers, and braches containing flowers. The flowers of C. frutescens were sprayed with water, which was taken as control. […] The extracted samples were centrifuged at 4000 rpm for 10 minutes. The samples were subjected to High Performance Liquid Chromatography for quantification of phenyl proponoid intermediates and major Capsaicinoids. […] The detection was at 236 nm and flow rate was maintained at 1 ml/min. […] The reagent used was of HPLC grade. The intermediates of phenyl proponoid pathway (Phenylalanine, Cinnamic acid, Coumaric acid, Caffeic acid, Ferulic acid and Vanillylamine) and two major Capsaicinoids (Capsaicin and Dihydrocapsaicin) were purchased from Sigma Co. […] Standard deviation of samples was calculated according to Tukey's method. The seedlings of Capsicum frutescens Mill were raised in soil bed. The seeds of C. frutescens were collected from BR. Hills, […]. The 2 months old seedling plants were transplanted to the soil and grown under controlled conditions to avoid cross-pollination after the onset of flowering. The plants were established well two months after transplantation and started to flower by 90 days with proper agronomic practices with regard to irrigation, fertilizer application, weeding and care from major pests and diseases. […] USA. […] The flowers of C. frutescens were sprayed with water, which was taken as control. […] The extracted samples were centrifuged at 4000 rpm for 10 minutes. The samples were subjected to High Performance Liquid Chromatography for quantification of phenyl proponoid intermediates and major Capsaicinoids. […] The detection was at 236nm and flow rate was maintained at 1 ml/min. […] The reagent used was of HPLC grade. The intermediates of phenyl propanoid pathway (Phenylalanine, Cinnamic acid, Coumaric acid, Caffeic acid, Ferulic acid and Vanillylamine) and two major Capsaicinoids (Capsaicin and Dihydrocapsaicin) were purchased from Sigma Co. […] Standard deviation of samples was calculated according to Tukey's method.
# [1] = fruits 25 days after anthesis, 1 mM sprayed
# [2] = fruits 25 days after anthesis, 2.5 mM sprayed
# [3] = fruits 25 days after anthesis, 5 mM sprayed
# [4] = fruits 30 days after anthesis, 1 mM sprayed
# [5] = fruits 30 days after anthesis, 2.5 mM sprayed
# [6] = fruits 30 days after anthesis, 5 mM sprayed
# [7] = fruits 35 days after anthesis, 1 mM sprayed
# [8] = fruits 35 days after anthesis, 2.5 mM sprayed
# [9] = fruits 35 days after anthesis, 5 mM sprayed
# [10] = fruits 40 days after anthesis, 1 mM sprayed
# [11] = fruits 40 days after anthesis, 2.5 mM sprayed
# [12] = fruits 40 days after anthesis, 5 mM sprayed
smiles,measurement,setting,value
"O=C([O-])c1ccccc1O.[Na+] [Salicylic Acid sodium salt, Salicylic acid sodium salt]",Caffeic Acid level,[1],21 ± 1.0 µM
same,Capsaicin level,[1],16 ± 08 µM
same,Cinnamic Acid level,[1],3.4 ± 0.9 µM
same,Coumaric Acid level,[1],12.0 ± 1.2 µM
same,Dihydrocapsaicin level,[1],5 ± 0.7 µM
same,Ferulic Acid level,[1],31 ± 1.2 µM
same,Phenylalanine level,[1],378 ± 8.2 µM
same,Vanillylamine level,[1],48 ± 1.4 µM
same,Caffeic Acid level,[2],25 ± 1.1 µM
same,Capsaicin level,[2],17 ± 1.1 µM
same,Cinnamic Acid level,[2],3.9 ± 0.7 µM
same,Coumaric Acid level,[2],15 ± 1.4 µM
same,Dihydrocapsaicin level,[2],5.5 ± 0.6 µM
same,Ferulic Acid level,[2],32 ± 1.4 µM
same,Phenylalanine level,[2],389 ± 9.2 µM
same,Vanillylamine level,[2],49 ± 1.8 µM
same,Caffeic Acid level,[3],28 ± 1.2 µM
same,Capsaicin level,[3],16 ± 1.1 µM
same,Cinnamic Acid level,[3],3.5 ± 0.6 µM
same,Coumaric Acid level,[3],14 ± 1.2 µM
same,Dihydrocapsaicin level,[3],6 ± 0.7 µM
same,Ferulic Acid level,[3],34 ± 1.9 µM
same,Phenylalanine level,[3],379 ± 10.0 µM
same,Vanillylamine level,[3],47 ± 2.1 µM
same,Caffeic Acid level,[4],28 ± 1.0 µM
same,Capsaicin level,[4],35 ± 2.4 µM
same,Cinnamic Acid level,[4],4.1 ± 1.1 µM
same,Coumaric Acid level,[4],12 ± 1.1 µM
same,Dihydrocapsaicin level,[4],11 ± 1.1 µM
same,Ferulic Acid level,[4],35 ± 4.1 µM
same,Phenylalanine level,[4],514 ± 12.2 µM
same,Vanillylamine level,[4],60 ± 1.9 µM
same,Caffeic Acid level,[5],30 ± 1.5 µM
same,Capsaicin level,[5],44 ± 1.1 µM
same,Cinnamic Acid level,[5],4.9 ± 1.5 µM
same,Coumaric Acid level,[5],18 ± 1.2 µM
same,Dihydrocapsaicin level,[5],12 ± 0.1 µM
same,Ferulic Acid level,[5],35 ± 3.9 µM
same,Phenylalanine level,[5],519 ± 8.7 µM
same,Vanillylamine level,[5],67 ± 2.1 µM
same,Caffeic Acid level,[6],32 ± 1.1 µM
same,Capsaicin level,[6],42 ± 2.8 µM
same,Cinnamic Acid level,[6],4.5 ± 1.1 µM
same,Coumaric Acid level,[6],15 ± 1.2 µM
same,Dihydrocapsaicin level,[6],10 ± 0.6 µM
same,Ferulic Acid level,[6],38 ± 3.4 µM
same,Phenylalanine level,[6],528 ± 7.4 µM
same,Vanillylamine level,[6],65 ± 4.2 µM
same,Caffeic Acid level,[7],29 ± 1.0 µM
same,Capsaicin level,[7],38 ± 2.8 µM
same,Cinnamic Acid level,[7],18 ± 1.0 µM
same,Coumaric Acid level,[7],24 ± 1.2 µM
same,Dihydrocapsaicin level,[7],15 ± 1.0 µM
same,Ferulic Acid level,[7],64 ± 5 µM
same,Phenylalanine level,[7],778 ± 5.9 µM
same,Vanillylamine level,[7],68 ± 1.9 µM
same,Caffeic Acid level,[8],42 ± 1.1 µM
same,Cinnamic Acid level,[8],25 ± 1.1 µM
same,Coumaric Acid level,[8],30 ± 1.5 µM
same,Dihydrocapsaicin level,[8],16 ± 1.0 µM
same,Ferulic Acid level,[8],69 ± 6.8 µM
same,Phenylalanine level,[8],789 ± 11 µM
same,Vanillylamine level,[8],77 ± 2.8 µM
same,Capsaicin level,"fruits 35 days after anthesis, 2.5 mM sprayed, sodium salt",39 ± 2.8 µM
same,Caffeic Acid level,[9],32 ± 1.0 µM
same,Capsaicin level,[9],36 ± 2.1 µM
same,Cinnamic Acid level,[9],24 ± 1.1 µM
same,Coumaric Acid level,[9],21 ± 1.1 µM
same,Dihydrocapsaicin level,[9],15 ± 0.9 µM
same,Ferulic Acid level,[9],65 ± 4.5 µM
same,Phenylalanine level,[9],891 ± 8.9 µM
same,Vanillylamine level,[9],73 ± 3.6 µM
same,Caffeic Acid level,[10],29 ± 1.1 µM
same,Capsaicin level,[10],31 ± 2.1 µM
same,Cinnamic Acid level,[10],15 ± 1.0 µM
same,Coumaric Acid level,[10],21 ± 1.1 µM
same,Dihydrocapsaicin level,[10],14 ± 1.0 µM
same,Ferulic Acid level,[10],62 ± 5 µM
same,Phenylalanine level,[10],532 ± 8.4 µM
same,Vanillylamine level,[10],64 ± 5.8 µM
same,Caffeic Acid level,[11],35 ± 1.0 µM
same,Capsaicin level,[11],34 ± 2.8 µM
same,Cinnamic Acid level,[11],23 ± 1.1 µM
same,Coumaric Acid level,[11],29 ± 1.4 µM
same,Dihydrocapsaicin level,[11],15 ± 1.0 µM
same,Ferulic Acid level,[11],65 ± 6 µM
same,Phenylalanine level,[11],549 ± 9.2 µM
same,Vanillylamine level,[11],68 ± 4.8 µM
same,Caffeic Acid level,[12],34 ± 1.1 µM
same,Capsaicin level,[12],38 ± 3.4 µM
same,Cinnamic Acid level,[12],20 ± 1.0 µM
same,Coumaric Acid level,[12],24 ± 1.5 µM
same,Dihydrocapsaicin level,[12],14 ± 1.1 µM
same,Ferulic Acid level,[12],67 ± 6 µM
same,Phenylalanine level,[12],547 ± 7.4 µM
same,Vanillylamine level,[12],65 ± 6.1 µM
